Measured values published in US9511086B2, “Method for improving immune system function by administering agents that inhibit DNA-dependent protein kinase-directed apoptosis” (The Board of Trustees of the Leland Stanford Junior …, priority 2010, dated 2016).

Key:
[1] = molecular target: Rous sarcoma tyrosine kinase (Homo sapiens, UniProt P12931); conditions: concentrations of up to 100 μM; cited from earlier work
casein kinase 1 = conditions: concentrations of up to 100 μM; cited from earlier work
Bim = Bim protein level by flow cytometry in RA T cells; assay type: cell-based, human; conditions: treated vs untreated
Experimental: (§1) FIG. 8. The DNA-PKcs-JNK pathway upregulates the apoptogenic molecules Bim and Bmf in RA CD4+ T cells. CD4+CD45RO− T cells were isolated from the peripheral blood of 6 controls and 6 RA patients. Cells were maintained in culture without mitogenic stimulation for 72 h. (A) Puma, Noxa, Bim and Bmf transcript levels in freshly isolated cells were quantified by qPCR. Data are presented as mean±SEM. (B) Flow cytometry analysis of Bim levels in control and RA naïve T cells after 72 h of culture. Expression of Bim protein in n=5 RA and n=5 controls samples is given as MFI of Alexa Fluor 488 Bim. (C) Flow cytometry analysis of Bmf levels in control and RA naïve T cells. Expression of Bmf protein in n=6 RA and n=4 controls samples is given as MFI of PE Bmf. (D) Bcl-2 protein levels were analyzed by flow cytometry. Expression of Bcl-2 protein in n=6 RA and n=6 control samples is given as MFI of FITC Bcl-2. (E) Bim protein level in the absence and presence of the DNA-PKcs inhibitor were analyzed by flow cytometry in samples from 4 RA patients. […]
(§2) For intracellular staining, cells were fixed directly with 1.5% formaldehyde for 10 min at room temperature and resuspended in 90% methanol. […] Proteins or 8-oxoguanine expression were detected by an LSRII flow cytometer (BD Biosciences). Data were analyzed by FlowJo software (Tree Star Inc., Ashland, Oreg.). […]

Bmf = Bmf protein level by flow cytometry in RA T cells; assay type: cell-based, human; conditions: treated vs untreated
Experimental: as §1, §2

protein kinase A = conditions: concentrations of up to 100 μM; cited from earlier work

Sequence of Rous sarcoma tyrosine kinase (P12931 whole entry): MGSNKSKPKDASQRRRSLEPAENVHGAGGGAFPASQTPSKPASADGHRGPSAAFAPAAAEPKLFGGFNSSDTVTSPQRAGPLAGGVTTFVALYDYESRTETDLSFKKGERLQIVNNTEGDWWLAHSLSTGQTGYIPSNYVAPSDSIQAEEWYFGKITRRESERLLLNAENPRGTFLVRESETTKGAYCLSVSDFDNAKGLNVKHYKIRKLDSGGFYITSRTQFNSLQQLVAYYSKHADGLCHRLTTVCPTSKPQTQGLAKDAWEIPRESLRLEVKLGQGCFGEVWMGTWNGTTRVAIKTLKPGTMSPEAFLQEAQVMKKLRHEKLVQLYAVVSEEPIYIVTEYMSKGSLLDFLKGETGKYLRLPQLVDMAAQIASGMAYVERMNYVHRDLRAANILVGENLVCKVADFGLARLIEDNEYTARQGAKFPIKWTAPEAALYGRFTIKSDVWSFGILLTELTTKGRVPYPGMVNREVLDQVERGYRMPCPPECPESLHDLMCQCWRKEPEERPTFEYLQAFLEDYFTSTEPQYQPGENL

For `CC(=O)c1ccc(N2CCOCC2)cc1O` [IC86621, 1-(2-hydroxy-4-morpholin-4-ylphenyl)ethanone], the “activity against Rous sarcoma tyrosine kinase” value [1] is listed as “neither activity”, the “activity against casein kinase 1” value (casein kinase 1) is listed as “neither activity” and the “intracellular Bim levels” value (Bim) is listed as “reduced”. The “intracellular Bmf levels” value (Bmf) was “reduced” and the “activity against protein kinase A” value (protein kinase A) was “neither activity”.
